Test results: article PMC2748841 (Nature, 2009)
Entries after “also recorded” stand apart in the source; their conditions may differ.

Legend:
APLP2 = APLP2 (Homo sapiens, UniProt Q06481); type: binding
APP = APP (Homo sapiens, UniProt P05067); type: binding
PrP-Fc = type: binding, mouse
control Fc protein = type: binding, human
PrP Δ52–91 = type: binding, mouse
hippocampal neurons = type: binding, rat
[1] = type: physicochemical; conditions: pH 7
PrP^C = PrP^C (Mus musculus, UniProt P04925); type: binding
Sprn = molecular target: T1, Sprn (Mus musculus, UniProt Q8BWU1); type: binding
T1 sequence (Q8BWU1 whole entry, looked up): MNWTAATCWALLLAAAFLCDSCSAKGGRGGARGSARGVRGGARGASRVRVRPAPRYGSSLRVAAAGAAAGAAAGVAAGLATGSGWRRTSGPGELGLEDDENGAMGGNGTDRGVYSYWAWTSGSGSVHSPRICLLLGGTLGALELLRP

Doppel = Doppel (Homo sapiens, UniProt Q9UKY0); type: binding
[2] = system: receptor for advanced glycation endproducts (RAGE); type: binding
[3] = system: hippocampal cultures from Prnp −/− mice; type: binding, mouse
PrP Δ32–121 = PrP Δ32–121 (Mus musculus, UniProt P04925, DEL32-121); type: binding
PrP Δ32–106 = PrP Δ32–106 (Mus musculus, UniProt P04925, DEL32-106); type: binding
PrP Δ95–105 = type: binding, mouse
PrP Δ70–105 = type: binding, mouse
[4] = system: Schaffer collateral LTP, wild-type hippocampal slices; parameters: species or system mouse
[5] = system: Schaffer collateral LTP, Prnp −/− hippocampal slices; parameters: species or system mouse
[6] = system: NR-2B containing receptors; type: cell-based
[7] = system: NR-2D containing receptors; type: cell-based
[8] = system: hippocampal long-term potentiation; conditions: cited from earlier work

Sequence of APLP2 (Q06481 32-763): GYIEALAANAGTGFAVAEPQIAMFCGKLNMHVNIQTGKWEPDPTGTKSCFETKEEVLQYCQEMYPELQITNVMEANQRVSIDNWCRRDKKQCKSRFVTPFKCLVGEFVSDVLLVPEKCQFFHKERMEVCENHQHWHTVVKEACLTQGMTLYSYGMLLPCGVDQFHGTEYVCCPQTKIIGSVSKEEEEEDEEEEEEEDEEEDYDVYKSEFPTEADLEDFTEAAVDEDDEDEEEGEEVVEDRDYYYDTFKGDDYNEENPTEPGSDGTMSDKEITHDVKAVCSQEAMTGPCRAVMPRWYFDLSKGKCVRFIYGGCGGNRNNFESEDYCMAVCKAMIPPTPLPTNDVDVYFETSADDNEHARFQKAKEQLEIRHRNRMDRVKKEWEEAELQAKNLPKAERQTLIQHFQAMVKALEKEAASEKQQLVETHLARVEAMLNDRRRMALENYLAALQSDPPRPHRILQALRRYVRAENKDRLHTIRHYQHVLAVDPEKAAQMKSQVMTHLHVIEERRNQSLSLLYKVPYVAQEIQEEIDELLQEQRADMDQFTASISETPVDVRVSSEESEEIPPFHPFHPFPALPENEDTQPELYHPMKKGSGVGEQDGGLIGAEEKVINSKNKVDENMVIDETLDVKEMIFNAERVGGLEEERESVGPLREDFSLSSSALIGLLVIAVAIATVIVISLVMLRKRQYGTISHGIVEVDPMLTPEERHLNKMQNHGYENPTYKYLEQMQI

Aβ42
binding to APLP2 (in words) (APLP2): neither of these proteins binds Aβ42 | binding to APP (in words) (APP): neither of these proteins binds Aβ42 | retention by PrP-Fc (in words) (PrP-Fc): retained Aβ42 peptide through a direct physical interaction | retention by control Fc (control Fc protein): retained neither freshly prepared nor oligomeric preparations of Aβ42 | binding to PrP Δ52–91 (in words) (PrP Δ52–91): exhibits significant Aβ42 binding

freshly prepared biotin-Aβ42: freshly prepared Aβ42 with biotin attached by 6-carbon linker to amino terminus
binding to hippocampal neurons (hippocampal neurons): does not

biotin-Aβ42-oligomer: Aβ42 with biotin moiety attached by 6-carbon linker to amino terminus, oligomerized
particle diameter [1]: 5–6 nm | localization of binding on neurons (hippocampal neurons): very low levels in astroglial cells

Aβ42-oligomer
binding to hippocampal neurons (hippocampal neurons): saturable; also recorded: binds to 21 DIV hippocampal neurons | developmental dependence of neuronal binding (hippocampal neurons): minimal binding to neurons immediately after dissociation from E18 hippocampus; also recorded: Not until 15–20 days have elapsed in vitro does Aβ42-oligomer binding to neurons become robust | localization of binding on neurons (hippocampal neurons): most concentrated at post-synaptic densities; also recorded: localization of PrP immunoreactivity and Aβ42-oligomer binding overlap extensively | Kd (hippocampal neurons; read-out: apparent KD): 50 to 100 nM | effect of copper on binding to PrP (PrP^C): does not alter Aβ42-oligomer binding | Kd (PrP^C; read-out: KD, PrP): 92 nM | affinity for Sprn (in words) (Sprn): neither exhibited affinity for oligomeric Aβ42 | affinity for Doppel (in words) (Doppel): neither exhibited affinity for oligomeric Aβ42 | binding to RAGE (in words) [2]: less Aβ42-oligomer binding signal than did PrP, APLP1 or TMEM30B | reduction of punctate binding in Prnp −/− cultures [3]: 50% | binding to PrP Δ32–121 (in words) (PrP Δ32–121): abrogates binding | binding to PrP Δ32–106 (in words) (PrP Δ32–106): no Aβ42-oligomer affinity | reduction of binding, PrP Δ95–105 (PrP Δ95–105): 80% | binding to PrP Δ70–105 (in words) (PrP Δ70–105): no further reduction | effect on LTP, wild-type slices [4]: reduce LTP in hippocampal slices from wild-type mice | effect on LTP, Prnp −/− slices [5]: no significant inhibition of LTP | effect on NR2B-containing NMDA receptor currents [6]: insensitive to Aβ42-oligomers | effect on NR2D-containing NMDA receptor currents [7]: insensitive to Aβ42-oligomers | effect on Schaffer collateral LTP [8]: suppress long-term potentiation (LTP)
